The NIST ThermoML archive (doi:10.1016/j.fluid.2010.02.037)

Conditions: Gas, Oscillating disk viscometry

CCN(CC)CC [triethylamine]
Conditions | viscosity [mPa·s]
296.98 K, Amount density=4.2 mol/m3 | 0.006418
297.59 K, Amount density=6.31 mol/m3 | 0.006412
297.87 K, Amount density=8.75 mol/m3 | 0.006427
297.97 K, Amount density=4.2 mol/m3 | 0.006439
297.98 K, Amount density=4.99 mol/m3 | 0.00644
298.33 K, Amount density=4.99 mol/m3 | 0.006437
299.24 K, Amount density=7.52 mol/m3 | 0.006446
299.36 K, Amount density=6.31 mol/m3 | 0.006449
299.67 K, Amount density=2.2 mol/m3 | 0.00649
299.85 K, Amount density=2.2 mol/m3 | 0.006485
300.02 K, Amount density=3.13 mol/m3 | 0.006488
300.11 K, Amount density=8.75 mol/m3 | 0.00646
303.12 K, Amount density=3.13 mol/m3 | 0.006548
310.02 K, Amount density=4.2 mol/m3 | 0.006668
310.29 K, Amount density=6.31 mol/m3 | 0.006654
311.78 K, Amount density=8.75 mol/m3 | 0.006667
313.96 K, Amount density=2.2 mol/m3 | 0.006764
314.61 K, Amount density=4.99 mol/m3 | 0.00675
316.33 K, Amount density=3.13 mol/m3 | 0.006815
324.05 K, Amount density=8.75 mol/m3 | 0.006913
324.26 K, Amount density=3.13 mol/m3 | 0.006981
324.9 K, Amount density=6.31 mol/m3 | 0.006948
324.95 K, Amount density=4.2 mol/m3 | 0.006971
325.84 K, Amount density=4.99 mol/m3 | 0.00698
326.04 K, Amount density=7.52 mol/m3 | 0.006979
326.63 K, Amount density=2.2 mol/m3 | 0.007024
337.84 K, Amount density=6.31 mol/m3 | 0.007205
338.12 K, Amount density=7.52 mol/m3 | 0.007218
338.25 K, Amount density=4.99 mol/m3 | 0.007233
338.31 K, Amount density=3.13 mol/m3 | 0.007259
338.63 K, Amount density=4.2 mol/m3 | 0.007245
338.92 K, Amount density=8.75 mol/m3 | 0.007217
339.05 K, Amount density=2.2 mol/m3 | 0.007275
352.32 K, Amount density=7.52 mol/m3 | 0.007513
352.34 K, Amount density=8.75 mol/m3 | 0.007487
352.41 K, Amount density=6.31 mol/m3 | 0.007492
352.46 K, Amount density=4.99 mol/m3 | 0.007529
352.5 K, Amount density=2.2 mol/m3 | 0.007551
352.91 K, Amount density=3.13 mol/m3 | 0.007557
353.3 K, Amount density=4.2 mol/m3 | 0.007551
365.86 K, Amount density=4.2 mol/m3 | 0.007803
366.42 K, Amount density=8.75 mol/m3 | 0.007782
366.49 K, Amount density=3.13 mol/m3 | 0.007839
366.6 K, Amount density=2.2 mol/m3 | 0.007842
366.72 K, Amount density=7.52 mol/m3 | 0.007801
366.77 K, Amount density=6.31 mol/m3 | 0.007784
367.25 K, Amount density=4.99 mol/m3 | 0.007831
380.54 K, Amount density=4.99 mol/m3 | 0.008109
380.67 K, Amount density=3.13 mol/m3 | 0.008129
381.06 K, Amount density=8.75 mol/m3 | 0.008076
381.14 K, Amount density=2.2 mol/m3 | 0.008137
381.83 K, Amount density=6.31 mol/m3 | 0.008106
385.41 K, Amount density=4.2 mol/m3 | 0.008217
385.75 K, Amount density=7.52 mol/m3 | 0.008206
394.25 K, Amount density=4.2 mol/m3 | 0.008388
394.49 K, Amount density=6.31 mol/m3 | 0.00837
394.51 K, Amount density=4.99 mol/m3 | 0.008386
394.56 K, Amount density=2.2 mol/m3 | 0.008413
394.86 K, Amount density=7.52 mol/m3 | 0.008384
394.95 K, Amount density=3.13 mol/m3 | 0.008423
395.11 K, Amount density=8.75 mol/m3 | 0.008369
408.35 K, Amount density=8.75 mol/m3 | 0.00864
408.97 K, Amount density=6.31 mol/m3 | 0.008662
409.2 K, Amount density=2.2 mol/m3 | 0.008718
409.32 K, Amount density=4.99 mol/m3 | 0.008707
409.67 K, Amount density=7.52 mol/m3 | 0.00869
409.73 K, Amount density=4.2 mol/m3 | 0.008711
412.99 K, Amount density=3.13 mol/m3 | 0.008804
422.67 K, Amount density=8.75 mol/m3 | 0.008939
422.79 K, Amount density=2.2 mol/m3 | 0.008996
423.03 K, Amount density=7.52 mol/m3 | 0.008963
423.25 K, Amount density=4.99 mol/m3 | 0.008991
423.41 K, Amount density=3.13 mol/m3 | 0.009012
423.92 K, Amount density=6.31 mol/m3 | 0.008966
423.93 K, Amount density=4.2 mol/m3 | 0.008988
436.97 K, Amount density=4.2 mol/m3 | 0.009275
437.11 K, Amount density=6.31 mol/m3 | 0.009249
437.42 K, Amount density=2.2 mol/m3 | 0.009296
437.51 K, Amount density=3.13 mol/m3 | 0.009315
437.62 K, Amount density=4.99 mol/m3 | 0.009286
437.76 K, Amount density=8.75 mol/m3 | 0.009255
437.87 K, Amount density=7.52 mol/m3 | 0.009269
451.28 K, Amount density=4.99 mol/m3 | 0.009572
451.45 K, Amount density=8.75 mol/m3 | 0.009534
451.66 K, Amount density=6.31 mol/m3 | 0.009554
451.72 K, Amount density=2.2 mol/m3 | 0.009594
451.74 K, Amount density=3.13 mol/m3 | 0.009599
451.76 K, Amount density=4.2 mol/m3 | 0.009586
451.93 K, Amount density=7.52 mol/m3 | 0.009558
465.92 K, Amount density=6.31 mol/m3 | 0.009846
466.45 K, Amount density=4.99 mol/m3 | 0.009879
466.58 K, Amount density=2.2 mol/m3 | 0.009907
466.63 K, Amount density=8.75 mol/m3 | 0.009851
466.71 K, Amount density=4.2 mol/m3 | 0.009893
469.98 K, Amount density=3.13 mol/m3 | 0.009985
471.39 K, Amount density=7.52 mol/m3 | 0.009972
480.12 K, Amount density=8.75 mol/m3 | 0.01013
480.36 K, Amount density=2.2 mol/m3 | 0.01019
480.43 K, Amount density=4.99 mol/m3 | 0.01017
480.7 K, Amount density=7.52 mol/m3 | 0.01015
480.86 K, Amount density=3.13 mol/m3 | 0.0102
481.09 K, Amount density=6.31 mol/m3 | 0.01015
481.32 K, Amount density=4.2 mol/m3 | 0.01019
495.17 K, Amount density=6.31 mol/m3 | 0.01045
495.29 K, Amount density=4.99 mol/m3 | 0.01047
495.31 K, Amount density=4.2 mol/m3 | 0.01049
495.84 K, Amount density=7.52 mol/m3 | 0.01046
496.21 K, Amount density=8.75 mol/m3 | 0.01046
498.38 K, Amount density=3.13 mol/m3 | 0.01057
498.45 K, Amount density=2.2 mol/m3 | 0.01056
